Laboratory results reported in PubChem BioAssay (NCI).
“And” between values parts separate entries of the source, which are not always exact repeats. Equal entries are not always repeated.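 Exposure lasted 48 hours, with cells grown in 96-well plates and compounds tested at five concentrations. GI50 is the concentration that inhibits growth by half. Definition used: TGI = concentration required for complete inhibition of growth.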

Columns and labels:
Test in all cases: DTP human tumour cell line panel, 48 h
[1] = tested on: ACHN renal
[2] = tested on: LOX IMVI melanoma
[3] = tested on: PC-3 prostate
[4] = tested on: SK-OV-3 ovarian
[5] = tested on: HOP-92 NSCLC
[6] = tested on: SF-295 CNS
[7] = tested on: HCT-15 colon
[8] = tested on: RXF 393 renal
[9] = tested on: HOP-62 NSCLC
[10] = tested on: MCF7 breast

SMILES | TGI [1] | TGI [2] | TGI [3] | TGI [4] | TGI [5] | TGI [6] | TGI [7] | TGI [8] | TGI [9] | TGI [10] | GI50 [1] | GI50 [2] | GI50 [3] | GI50 [4] | GI50 [5] | GI50 [6] | GI50 [7] | GI50 [8] | GI50 [9] | GI50 [10]
O=C1c2ccccc2C(=O)c2c(OCCOCCO)cccc21 | > 100 µM | > 100 µM | > 100 µM | > 100 µM | 96.9 µM | > 100 µM | > 100 µM | > 100 µM | > 100 µM | > 100 µM |  |  |  |  |  |  |  |  |  | 
Cc1cc([N+](=O)[O-])c2ccccc2[n+]1[O-] | 0.394 µM and 0.721 µM | 3.48 µM and 1.87 µM | 1.01 µM and 0.663 µM | 6.07 µM and 11.6 µM | 1.73 µM and 0.597 µM | 0.76 µM and 2 µM | 0.797 µM and 1.03 µM | 0.455 µM and 0.512 µM | 0.835 µM and 1.13 µM | 0.461 µM and 0.45 µM | 0.0758 µM and 0.0614 µM | 1.16 µM and 0.385 µM | 0.165 µM and 0.149 µM | 1.94 µM and 3.33 µM | 0.308 µM and 0.153 µM | 0.206 µM and 0.236 µM | 0.185 µM and 0.213 µM | 0.181 µM and 0.17 µM | 0.188 µM and 0.25 µM | 0.0489 µM and 0.0342 µM
COC(=O)CSSCc1ccc([N+](=O)[O-])cc1 | 36.2 µM | 30.3 µM | 81 µM | 46.8 µM | > 100 µM | 43 µM | 48 µM | 36.2 µM | 42.4 µM | 34.3 µM |  |  |  |  |  |  |  |  |  | 
O=S(=O)(c1cnccc1N1CCN(CCO)CC1)N1CCCC1 | > 100 µM | > 100 µM | > 100 µM | > 100 µM | > 100 µM | > 100 µM | > 100 µM | > 100 µM | > 100 µM | > 100 µM |  |  |  |  |  |  |  |  |  | 
O=[N+]([O-])c1cccc(C2CC(c3ccccc3)=Nc3ccccc3S2)c1 (stereo not given) | 28.5 µM | 11.9 µM | 28.7 µM | > 100 µM | 45.6 µM | 77.7 µM | 18.7 µM | 36.6 µM | > 100 µM | 13.3 µM | 13.9 µM | 3.02 µM | 10.1 µM | 34.9 µM | 14.3 µM | 25.1 µM | 4.84 µM | 17.2 µM | 37.8 µM | 2.06 µM
C#CCOc1ccc2ncnc(Nc3ccc(NC(=O)C=C)cc3)c2c1 | > 100 µM | 17.5 µM | > 100 µM | > 100 µM | 52.7 µM | > 100 µM | > 100 µM | 58.8 µM | > 100 µM | > 100 µM | 28.2 µM | 3.92 µM | 70.4 µM | > 100 µM | 7.84 µM | > 100 µM | 19.2 µM | 15.2 µM | > 100 µM | 2.98 µM
Cc1ccc(NC(=O)C(=O)CC(=O)c2sc(Nc3c(C)cccc3C)nc2C)cc1C | > 100 µM | > 100 µM | > 100 µM | > 100 µM | > 100 µM | > 100 µM | > 100 µM | > 100 µM | > 100 µM | > 100 µM |  |  |  |  |  |  |  |  |  | 
COc1cc2cc(Oc3ccc(NC(=O)Nc4ccc(Cl)c(Cl)c4)cc3)c(C)nc2cc1OC | 12.1 µM | 14.6 µM | 5.13 µM | 26.4 µM | 4.88 µM | 6.08 µM | > 100 µM | 16.7 µM | 11.9 µM | 13.8 µM | 3 µM | 3.45 µM | 1.53 µM | 7.56 µM | 2.04 µM | 1.96 µM | 3.56 µM | 4.28 µM | 3.55 µM | 2.89 µM
